Source: PubChem BioAssay AID2060337 (Molecular Pharmacology Branch, DTP, NCI, 2025)

System: 832693-133-R-J1-PDC multi-cell spheroids, viability
Test: Anticancer human tumor 832693-133-R-J1-PDC patient-derived head and neck squamous carcinoma cell line growth inhibition [IpAb]
Settings: for IC50: curve of first compound; for viability, T/C: stronger effect = lower value
Procedure, shortened: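 Combinations with ipatasertib or abemaciclib were tested on tumour spheroids holding HUVEC (25%) and MSC (15%) alongside 60% malignant cells. Top concentration was at or near clinical Cmax (10 microM if undefined), descending in half-log steps.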
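Note: spheroids exposed to the drugs for one week before the viability readout.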
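Throughout, for viability, T/C: 100% = DMSO vehicle control wells.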

`C=CCn1c(=O)c2cnc(Nc3ccc(N4CCN(C)CC4)cc3)nc2n1-c1cccc(C(C)(C)O)n1` + CCN1CCN(Cc2ccc(Nc3ncc(F)c(-c4cc(F)c5nc(C)n(C(C)C)c5c4)n3)nc2)CC1 was tested, and the IC50 (second compound 0.01 µM) was 233 nM, the IC50 (second compound 0.0316 µM) was 246 nM and the IC50 (second compound 0.1 µM) was 138 nM. It also gave an IC50 (second compound 0.316 µM) of 134 nM, an IC50 (second compound 1 µM) of 2620 nM and a viability, T/C (second compound 0.01 µM, first compound 0.0316 µM) of 93.9%. For the same compound, the viability, T/C (second compound 0.01 µM, first compound 0.1 µM) was 66.6%, the viability, T/C (second compound 0.01 µM, first compound 0.316 µM) was 42.4% and the viability, T/C (second compound 0.01 µM, first compound 1 µM) was 28.9%. For the same compound, the viability, T/C (second compound 0.01 µM, first compound 3.16 µM) was 27.5%, the viability, T/C (second compound 0.01 µM, first compound 10 µM) was 13.9% and the viability, T/C (second compound 0.0316 µM, first compound 0.0316 µM) was 74.7%. The viability, T/C (second compound 0.0316 µM, first compound 0.1 µM) was 68%, the viability, T/C (second compound 0.0316 µM, first compound 0.316 µM) was 40.4% and the viability, T/C (second compound 0.0316 µM, first compound 1 µM) was 33.2%. For the same compound, the viability, T/C (second compound 0.0316 µM, first compound 3.16 µM) was 29.3%, the viability, T/C (second compound 0.0316 µM, first compound 10 µM) was 14.9% and the viability, T/C (second compound 0.1 µM, first compound 0.0316 µM) was 65.9%. It also gave a viability, T/C (second compound 0.1 µM, first compound 0.1 µM) of 51.8%, a viability, T/C (second compound 0.1 µM, first compound 0.316 µM) of 41.6% and a viability, T/C (second compound 0.1 µM, first compound 1 µM) of 33.3%. It also gave a viability, T/C (second compound 0.1 µM, first compound 3.16 µM) of 30.9%, a viability, T/C (second compound 0.1 µM, first compound 10 µM) of 19.1% and a viability, T/C (second compound 0.316 µM, first compound 0.0316 µM) of 53.4%. For the same compound, the viability, T/C (second compound 0.316 µM, first compound 0.1 µM) was 52.9%, the viability, T/C (second compound 0.316 µM, first compound 0.316 µM) was 47.9% and the viability, T/C (second compound 0.316 µM, first compound 1 µM) was 37.4%. The viability, T/C (second compound 0.316 µM, first compound 3.16 µM) was 35.2%, the viability, T/C (second compound 0.316 µM, first compound 10 µM) was 25% and the viability, T/C (second compound 1 µM, first compound 0.0316 µM) was 61.9%. It also gave a viability, T/C (second compound 1 µM, first compound 0.1 µM) of 65.9%, a viability, T/C (second compound 1 µM, first compound 0.316 µM) of 56.7% and a viability, T/C (second compound 1 µM, first compound 1 µM) of 53.6%. The viability, T/C (second compound 1 µM, first compound 3.16 µM) was 51.6% and the viability, T/C (second compound 1 µM, first compound 10 µM) was 23.8%.
With `CC(C)(C)c1cnc(CSc2cnc(NC(=O)C3CCNCC3)s2)o1` + CCN1CCN(Cc2ccc(Nc3ncc(F)c(-c4cc(F)c5nc(C)n(C(C)C)c5c4)n3)nc2)CC1 the IC50 (second compound 0.01 µM) was 577 nM, the IC50 (second compound 0.0316 µM) was 223 nM and the IC50 (second compound 0.1 µM) was 161 nM. It also gave an IC50 (second compound 0.316 µM) of 149 nM, an IC50 (second compound 1 µM) of 134 nM and a viability, T/C (second compound 0.01 µM, first compound 0.00949 µM) of 107%. It also gave a viability, T/C (second compound 0.01 µM, first compound 0.03 µM) of 125%, a viability, T/C (second compound 0.01 µM, first compound 0.0949 µM) of 157% and a viability, T/C (second compound 0.01 µM, first compound 0.3 µM) of 114%. It also gave a viability, T/C (second compound 0.01 µM, first compound 0.949 µM) of 0.93%, a viability, T/C (second compound 0.01 µM, first compound 3 µM) of 1.32% and a viability, T/C (second compound 0.0316 µM, first compound 0.00949 µM) of 97.8%. For the same compound, the viability, T/C (second compound 0.0316 µM, first compound 0.03 µM) was 112%, the viability, T/C (second compound 0.0316 µM, first compound 0.0949 µM) was 133% and the viability, T/C (second compound 0.0316 µM, first compound 0.3 µM) was 27.8%. For the same compound, the viability, T/C (second compound 0.0316 µM, first compound 0.949 µM) was 0.9%, the viability, T/C (second compound 0.0316 µM, first compound 3 µM) was 1.39% and the viability, T/C (second compound 0.1 µM, first compound 0.00949 µM) was 73.8%. It also gave a viability, T/C (second compound 0.1 µM, first compound 0.03 µM) of 93.5%, a viability, T/C (second compound 0.1 µM, first compound 0.0949 µM) of 104% and a viability, T/C (second compound 0.1 µM, first compound 0.3 µM) of 6.06%. It also gave a viability, T/C (second compound 0.1 µM, first compound 0.949 µM) of 0.75%, a viability, T/C (second compound 0.1 µM, first compound 3 µM) of 1.11% and a viability, T/C (second compound 0.316 µM, first compound 0.00949 µM) of 66.7%. For the same compound, the viability, T/C (second compound 0.316 µM, first compound 0.03 µM) was 77.5%, the viability, T/C (second compound 0.316 µM, first compound 0.0949 µM) was 100% and the viability, T/C (second compound 0.316 µM, first compound 0.3 µM) was 1.34%. The viability, T/C (second compound 0.316 µM, first compound 0.949 µM) was 1.19%, the viability, T/C (second compound 0.316 µM, first compound 3 µM) was 1.26% and the viability, T/C (second compound 1 µM, first compound 0.00949 µM) was 67.9%. For the same compound, the viability, T/C (second compound 1 µM, first compound 0.03 µM) was 81.3%, the viability, T/C (second compound 1 µM, first compound 0.0949 µM) was 70.7% and the viability, T/C (second compound 1 µM, first compound 0.3 µM) was 1.74%. The viability, T/C (second compound 1 µM, first compound 0.949 µM) was 1.59% and the viability, T/C (second compound 1 µM, first compound 3 µM) was 1.53%.
